Experimental findings from patent US20210000912A1, “Compositions And Methods For Prophylaxis Or Treatment Of Pain” (Interk Peptide Therapeutics Limited, priority 2017, published 2021) are described below.

The target in experiment [1] is T1, c-Src (h) (Homo sapiens, UniProt P12931).
T1 construct: purchased Eurofins Pharma Discovery Services UK Ltd (contract assay service)
Briefly: c-Src kinase activity assay, cell free. The class given is biochemical. How it is done: The capacity of test peptides to inhibit the activity of the kinases PKG1α, PKG1β, and Src family kinases in a cell free assay was assessed. The test peptides were amidated at their C-terminal end (indicated by “—NH2”) unless otherwise noted. Kinase activity assays were conducted by Eurofins Pharma Discovery Services UK Ltd (Dundee Technology Park, Dundee, United Kingdom) and Reaction Biology Corp. (Malvern, Pa., USA).
All test peptides are prepared to 50× final assay concentration in 100% DMSO. This working stock of the test compound is added to assay wells as the first component in the reaction, followed by the remaining components of the respective assay protocols described below. There is no pre-incubation step between the test peptide and the kinase prior to initiation of the reaction. The kinases are diluted in buffer (20 mM MOPS, 1 mM EDTA, 0.01% Brij-35, 5% Glycerol, 0.1% β-mercaptoethanol, 1 mg/mL BSA) prior to addition to the reaction mix.
Positive control wells contain all components of the reaction, except the test peptide of interest. However, DMSO (at a final concentration of 2%) is included in positive control wells to control for solvent effects. Negative control wells contain all components of the reaction, with a reference inhibitor (staurosporine) replacing the test peptide. This abolishes kinase activity and establishes a base-line (0% kinase activity). Kinase assay protocols (Eurofins Pharma Discovery Services UK Ltd, Dundee Technology Park, Dundee, United Kingdom) are described below. Of the Src family kinases, only the assay protocol for c-Src is shown.
c-Src (h) is incubated with 8 mM MOPS pH 7.0, 0.2 mM EDTA, 250 μM KVEKIGEGTYGVVYK (Cdc2 peptide), 10 mM MgAcetate and [γ-^33P]-ATP (specific activity approx. 500 cpm/pmol, concentration as required). The reaction is initiated by the addition of the MgATP mix. After incubation for 40 minutes at room temperature, the reaction is stopped by the addition of 3% phosphoric acid solution. A 10 μL aliquot of the reaction is then spotted onto a P30 filtermat and washed three times for 5 minutes in 75 mM phosphoric acid and once in methanol prior to drying and scintillation counting.

Experiment [2] has as its system nerve injured rats. Description: Intrathecal testing in neuropathic pain model, von Frey paw withdrawal threshold. The class given is in vivo, Sprague-Dawley rats. The following applies: administered intrathecally, on a molar basis. How it is done:
Experiments were performed on male Sprague-Dawley rats weighing 300-400 g at the start of experiments. Animals were housed 2 or 3 per cage until cannula surgery, after which time they were singly housed for 4 days until the day of experiment. Animals were maintained on standard 12-h light/dark cycle with food and water available ad libitum.
After baseline von Frey measures were taken, animals underwent partial nerve ligation (PNL) surgery, as previously described (Seltzer, Z., Dubner, R., Shir, Y., 1990. A novel behavioural-model of neuropathic pain disorders produced in rats by partial sciatic-nerve injury. Pain 43, 205-218). Briefly, animals were deeply anaesthetised using isoflurane (2.0-2.5% in oxygen), and the sciatic nerve of the left hind-leg was exposed via blunt dissection of the biceps femoris at a site near the trochanter, just distal to the posterior biceps semitendinosus nerve branches of the common sciatic nerve. A 6-0 silk suture was used to tightly ligate the dorsal 30-50% of the nerve. […]
Mechanical paw withdrawal threshold (PWT) was measured using a series of von Frey hairs with bending pressures ranging from 0.41 to 15.1 g. […] The mechanical PWT was calculated using the up-down paradigm (Dixon, W. J., 1980. Efficient analysis of experimental-observations. Annual Review of Pharmacology and Toxicology 20, 441-462). […]

T1 sequence (P12931 whole entry): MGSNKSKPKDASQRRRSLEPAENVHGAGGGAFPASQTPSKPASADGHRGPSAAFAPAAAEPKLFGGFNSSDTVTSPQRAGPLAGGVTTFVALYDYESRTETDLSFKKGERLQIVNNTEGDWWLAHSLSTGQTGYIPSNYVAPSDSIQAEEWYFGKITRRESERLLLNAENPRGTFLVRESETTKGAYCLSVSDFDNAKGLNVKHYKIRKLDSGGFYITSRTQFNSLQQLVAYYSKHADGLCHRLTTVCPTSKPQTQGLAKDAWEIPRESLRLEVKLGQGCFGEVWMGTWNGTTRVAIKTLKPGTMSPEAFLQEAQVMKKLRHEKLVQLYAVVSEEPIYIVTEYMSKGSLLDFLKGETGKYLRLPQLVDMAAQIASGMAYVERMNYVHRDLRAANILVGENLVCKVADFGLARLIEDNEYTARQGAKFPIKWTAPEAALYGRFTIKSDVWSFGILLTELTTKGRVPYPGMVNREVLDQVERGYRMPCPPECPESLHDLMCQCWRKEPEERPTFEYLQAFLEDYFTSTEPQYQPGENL

As for `N=C(N)NCCC[C@H](NC(=O)[C@H](CCCNC(=N)N)NC(=O)[C@H](CCCNC(=N)N)NC(=O)[C@H](CCCNC(=N)N)NC(=O)[C@H](CCCNC(=N)N)NC(=O)[C@H](CCCNC(=N)N)NC(=O)[C@H](CCCNC(=N)N)NC(=O)[C@H](CCCNC(=N)N)NC(=O)[C@H](CCCNC(=N)N)NC(=O)[C@H](CCCNC(=N)N)NC(=O)[C@H](CCCNC(=N)N)NC(=O)[C@H](CCCNC(=N)N)NC(=O)[C@H](CCCNC(=N)N)NC(=O)[C@@H](N)CCCNC(=N)N)C(N)=O` [IK01400, RRRRRRRRRRRRRR-NH2], the IC50 – broadly, the concentration needed to halve the response being measured – in experiment [1] was 5.5 nM. Further, the “alleviating neuropathic pain (ipsilateral von Frey PWT) compared to morphine” value in experiment [2] was “more effective in alleviating neuropathic pain than morphine on a molar basis”.
